Experimental data taken from patent publication US20240132521A1, “COMPOUNDS AND METHODS FOR MODULATING HER2” (Iambic Therapeutics, Inc., priority 2022, published 2024).

Columns and labels:
wtERBB2 (Her2 WT) = biological target: T1, wtERBB2 (Her2 WT) (Homo sapiens, UniProt P04626); assay: HotSpot radiometric kinase activity assay, wtERBB2; conditions: biochemical activity, 30 nM wtERBB2, 10 μM 33P-ATP, 2 hours
T1 construct: purchased Reaction Biology Kin-21-497
Description: (§1) The purpose of the wtERBB2, ERBB2-A775_G776insYVMA (ERBB2YVMA), wtEGFR biochemical assay was to evaluate the inhibition (% inhibition and IC50 values) of the small molecule inhibitors by using the “HotSpot” radiometric kinase activity assay. HotSpot assays monitor the production of kinase substrate by the radioactive gamma phosphate of adenosine triphosphate (33P-ATP) during biochemical reactions. HotSpot assays was performed in steps upon completion of the kinase reaction: deposition of a reaction mixture aliquot onto P81 ion exchange paper, extensive washing of the aforementioned P81 paper using phosphoric acid to remove unbound radiolabeled 33P-ATP from the P81 paper, and finally visualization and quantification of the dried P81 paper utilizing a phosphoimager. […] Typical reaction solutions (10 μL, final reaction volume) contained the following buffer conditions: 20 mM Hepes (pH 7.5), 10 mM MgCl2, 1 mM EGTA, 0.01% Brij35, 0.02 mg/mL BSA, 0.1 mM Na3VO4, 2 mM DTT, 1% DMSO. The assay was primed by preparing a fresh 0.2 mg/mL solution of pEY (Sigma Cat: P7244) substrate in the reaction buffer and supplementing that solution with […] of MnCl2 as substrate cofactor (Sigma Cat: M9522). The kinase of interest was then added to the solution at the appropriate concentration (30 nM wtERBB2 from, or 20 nM ERBB2YVMA, or 4 nM wtEGFR) and gently mixed prior to delivery of compound in 100% DMSO by acoustic dispensing (Beckman Echo550). Compound, Kinase, and substrate were allowed to incubate for 20 min at room temperature prior to the initiation of the reaction by addition of 33P-ATP (PerkinElmer Cat: NEG602, final conc 10 μM). […] IC50 determinations were made from a plot of kinase activity as a function of inhibitor concentration fit to the 4-parameter IC50 equation with the enzyme concentration held constant using GraphPad Prism (San Diego).

[1] = biological target: T2, ERBB2-A775_G776insYVMA (ERBB2YVMA) (Homo sapiens, UniProt P04626, INS775YVMA); assay: HotSpot radiometric kinase activity assay, ERBB2YVMA; conditions: biochemical activity, 20 nM ERBB2YVMA, 10 μM 33P-ATP, 2 hours, read-out: HER2 - YVMA IC50
T2 construct: purchased SignalChem E27-13BG
Description: as §1

wtEGFR = biological target: T3, wtEGFR (Homo sapiens, UniProt P00533); assay: HotSpot radiometric kinase activity assay, wtEGFR; conditions: biochemical activity, 4 nM wtEGFR, 10 μM 33P-ATP, 2 hours, read-out: EGFR WT IC50
T3 construct: purchased Invitrogen PR7295B
Description: as §1

BaF3_HER2WT cells = BaF3_HER2WT cells (Homo sapiens, UniProt P04626); assay: Cell growth inhibition assay (CellTiterGlo), BaF3_HER2WT; format: cell-based; conditions: 3-day treatment, CellTiterGlo, read-out: Cell growth inhibition activity, HER2 WT
Sequence of BaF3_HER2WT cells (P04626 whole entry, change not shown): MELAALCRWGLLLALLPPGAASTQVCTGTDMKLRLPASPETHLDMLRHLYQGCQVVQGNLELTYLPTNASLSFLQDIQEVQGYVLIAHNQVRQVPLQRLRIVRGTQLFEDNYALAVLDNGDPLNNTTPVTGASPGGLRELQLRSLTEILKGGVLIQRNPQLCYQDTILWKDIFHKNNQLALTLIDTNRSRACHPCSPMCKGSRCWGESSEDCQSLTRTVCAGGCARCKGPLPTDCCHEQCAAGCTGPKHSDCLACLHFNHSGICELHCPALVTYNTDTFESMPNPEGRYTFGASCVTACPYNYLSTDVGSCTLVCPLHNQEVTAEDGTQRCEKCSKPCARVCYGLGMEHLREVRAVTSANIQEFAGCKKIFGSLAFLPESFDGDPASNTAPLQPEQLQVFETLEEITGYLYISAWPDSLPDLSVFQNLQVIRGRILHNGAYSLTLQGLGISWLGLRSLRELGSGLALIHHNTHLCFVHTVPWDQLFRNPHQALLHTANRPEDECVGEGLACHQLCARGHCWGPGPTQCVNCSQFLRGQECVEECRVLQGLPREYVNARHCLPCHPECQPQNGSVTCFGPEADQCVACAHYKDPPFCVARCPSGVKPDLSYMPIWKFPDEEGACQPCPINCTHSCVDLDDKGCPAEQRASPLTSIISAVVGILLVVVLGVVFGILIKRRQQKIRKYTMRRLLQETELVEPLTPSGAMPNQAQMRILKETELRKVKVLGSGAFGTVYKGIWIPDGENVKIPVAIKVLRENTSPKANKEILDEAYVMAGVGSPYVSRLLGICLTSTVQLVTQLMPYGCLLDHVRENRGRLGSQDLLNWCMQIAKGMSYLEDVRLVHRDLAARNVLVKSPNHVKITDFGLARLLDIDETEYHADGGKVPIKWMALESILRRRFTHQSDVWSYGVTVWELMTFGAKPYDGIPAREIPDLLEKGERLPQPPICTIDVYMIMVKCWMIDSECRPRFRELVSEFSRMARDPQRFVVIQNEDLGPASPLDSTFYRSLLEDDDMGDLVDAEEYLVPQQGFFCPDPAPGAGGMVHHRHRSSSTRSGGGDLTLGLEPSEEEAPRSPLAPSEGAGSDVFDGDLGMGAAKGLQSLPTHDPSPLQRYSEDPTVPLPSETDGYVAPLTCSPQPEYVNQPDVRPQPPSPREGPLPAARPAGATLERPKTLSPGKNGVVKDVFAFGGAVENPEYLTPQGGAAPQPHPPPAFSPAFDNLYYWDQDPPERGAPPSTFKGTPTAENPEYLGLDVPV

BaF3_HER2YVMA cells = BaF3_HER2YVMA cells (Homo sapiens, UniProt P04626, DUP772-775, cells depend on it); assay: Cell growth inhibition assay (CellTiterGlo), BaF3_HER2YVMA; format: cell-based; conditions: 3-day treatment, CellTiterGlo, read-out: Cell growth inhibition activity, HER2 - YVMA
Sequence of BaF3_HER2YVMA cells (P04626 with tags, fused parts or gaps DUP772-775): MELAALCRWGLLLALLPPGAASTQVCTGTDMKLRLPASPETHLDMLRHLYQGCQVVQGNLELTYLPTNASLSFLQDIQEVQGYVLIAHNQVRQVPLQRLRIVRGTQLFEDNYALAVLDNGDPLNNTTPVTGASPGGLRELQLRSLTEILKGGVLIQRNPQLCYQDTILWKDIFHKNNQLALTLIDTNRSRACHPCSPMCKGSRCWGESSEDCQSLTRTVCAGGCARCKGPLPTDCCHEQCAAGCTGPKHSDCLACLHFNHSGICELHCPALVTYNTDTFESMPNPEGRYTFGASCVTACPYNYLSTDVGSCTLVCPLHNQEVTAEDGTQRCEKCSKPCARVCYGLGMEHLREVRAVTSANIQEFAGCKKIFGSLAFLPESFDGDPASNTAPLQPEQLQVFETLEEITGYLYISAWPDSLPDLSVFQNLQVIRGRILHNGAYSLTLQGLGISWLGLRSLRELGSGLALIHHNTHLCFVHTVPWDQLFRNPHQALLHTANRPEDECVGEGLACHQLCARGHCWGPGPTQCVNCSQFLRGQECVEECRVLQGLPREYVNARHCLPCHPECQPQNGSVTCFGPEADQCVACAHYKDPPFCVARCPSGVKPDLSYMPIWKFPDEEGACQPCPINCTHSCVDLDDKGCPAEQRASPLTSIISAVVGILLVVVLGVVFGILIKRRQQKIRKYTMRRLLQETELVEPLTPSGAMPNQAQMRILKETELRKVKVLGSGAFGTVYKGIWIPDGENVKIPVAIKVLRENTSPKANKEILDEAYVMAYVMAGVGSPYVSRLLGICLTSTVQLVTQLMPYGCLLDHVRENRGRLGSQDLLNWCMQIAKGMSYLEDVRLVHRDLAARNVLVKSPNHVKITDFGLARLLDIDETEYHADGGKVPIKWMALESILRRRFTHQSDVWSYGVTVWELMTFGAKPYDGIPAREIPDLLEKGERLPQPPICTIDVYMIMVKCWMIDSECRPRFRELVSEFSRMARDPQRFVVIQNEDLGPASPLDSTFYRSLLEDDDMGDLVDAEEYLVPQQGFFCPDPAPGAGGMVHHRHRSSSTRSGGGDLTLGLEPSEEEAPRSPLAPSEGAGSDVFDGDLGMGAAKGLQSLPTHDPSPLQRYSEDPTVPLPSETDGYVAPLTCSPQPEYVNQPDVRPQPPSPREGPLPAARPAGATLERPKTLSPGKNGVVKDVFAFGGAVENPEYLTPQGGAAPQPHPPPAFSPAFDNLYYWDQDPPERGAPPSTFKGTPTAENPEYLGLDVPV

BaF3_EGFRWT cells = BaF3_EGFRWT cells (Homo sapiens, UniProt P00533); assay: Cell growth inhibition assay (CellTiterGlo), BaF3_EGFRWT; format: cell-based; conditions: 3-day treatment, CellTiterGlo, read-out: Cell growth inhibition activity, EGFR WT
Sequence of BaF3_EGFRWT cells (P00533 whole entry, change not shown): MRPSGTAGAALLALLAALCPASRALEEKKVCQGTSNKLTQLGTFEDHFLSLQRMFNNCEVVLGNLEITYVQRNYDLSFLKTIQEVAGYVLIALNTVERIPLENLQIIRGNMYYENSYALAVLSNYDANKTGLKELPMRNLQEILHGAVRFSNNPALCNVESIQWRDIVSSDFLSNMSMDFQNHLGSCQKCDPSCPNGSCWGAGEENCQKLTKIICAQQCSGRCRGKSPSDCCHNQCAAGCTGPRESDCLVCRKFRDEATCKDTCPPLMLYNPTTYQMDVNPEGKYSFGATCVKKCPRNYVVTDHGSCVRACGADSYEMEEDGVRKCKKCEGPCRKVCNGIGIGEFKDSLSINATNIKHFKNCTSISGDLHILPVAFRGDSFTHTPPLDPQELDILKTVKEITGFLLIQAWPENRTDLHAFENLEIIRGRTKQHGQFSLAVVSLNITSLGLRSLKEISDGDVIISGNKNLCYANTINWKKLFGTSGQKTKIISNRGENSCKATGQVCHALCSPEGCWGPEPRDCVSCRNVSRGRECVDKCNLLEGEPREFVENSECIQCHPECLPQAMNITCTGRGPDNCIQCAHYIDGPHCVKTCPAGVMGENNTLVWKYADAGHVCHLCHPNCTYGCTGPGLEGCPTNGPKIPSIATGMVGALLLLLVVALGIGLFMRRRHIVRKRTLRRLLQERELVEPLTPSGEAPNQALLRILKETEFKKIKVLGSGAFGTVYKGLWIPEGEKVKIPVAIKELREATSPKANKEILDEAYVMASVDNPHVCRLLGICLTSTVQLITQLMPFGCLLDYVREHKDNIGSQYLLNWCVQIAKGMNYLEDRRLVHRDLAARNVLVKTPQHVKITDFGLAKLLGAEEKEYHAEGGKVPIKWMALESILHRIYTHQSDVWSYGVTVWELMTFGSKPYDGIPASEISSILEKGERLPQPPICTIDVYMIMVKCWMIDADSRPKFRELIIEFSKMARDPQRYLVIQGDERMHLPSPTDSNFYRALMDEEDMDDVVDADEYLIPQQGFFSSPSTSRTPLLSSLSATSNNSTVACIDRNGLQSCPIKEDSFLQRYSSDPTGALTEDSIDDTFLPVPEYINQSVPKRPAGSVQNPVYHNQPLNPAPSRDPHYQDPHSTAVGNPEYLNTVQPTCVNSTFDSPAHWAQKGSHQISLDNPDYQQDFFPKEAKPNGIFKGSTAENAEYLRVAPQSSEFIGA

T1 sequence (P04626 23-1255): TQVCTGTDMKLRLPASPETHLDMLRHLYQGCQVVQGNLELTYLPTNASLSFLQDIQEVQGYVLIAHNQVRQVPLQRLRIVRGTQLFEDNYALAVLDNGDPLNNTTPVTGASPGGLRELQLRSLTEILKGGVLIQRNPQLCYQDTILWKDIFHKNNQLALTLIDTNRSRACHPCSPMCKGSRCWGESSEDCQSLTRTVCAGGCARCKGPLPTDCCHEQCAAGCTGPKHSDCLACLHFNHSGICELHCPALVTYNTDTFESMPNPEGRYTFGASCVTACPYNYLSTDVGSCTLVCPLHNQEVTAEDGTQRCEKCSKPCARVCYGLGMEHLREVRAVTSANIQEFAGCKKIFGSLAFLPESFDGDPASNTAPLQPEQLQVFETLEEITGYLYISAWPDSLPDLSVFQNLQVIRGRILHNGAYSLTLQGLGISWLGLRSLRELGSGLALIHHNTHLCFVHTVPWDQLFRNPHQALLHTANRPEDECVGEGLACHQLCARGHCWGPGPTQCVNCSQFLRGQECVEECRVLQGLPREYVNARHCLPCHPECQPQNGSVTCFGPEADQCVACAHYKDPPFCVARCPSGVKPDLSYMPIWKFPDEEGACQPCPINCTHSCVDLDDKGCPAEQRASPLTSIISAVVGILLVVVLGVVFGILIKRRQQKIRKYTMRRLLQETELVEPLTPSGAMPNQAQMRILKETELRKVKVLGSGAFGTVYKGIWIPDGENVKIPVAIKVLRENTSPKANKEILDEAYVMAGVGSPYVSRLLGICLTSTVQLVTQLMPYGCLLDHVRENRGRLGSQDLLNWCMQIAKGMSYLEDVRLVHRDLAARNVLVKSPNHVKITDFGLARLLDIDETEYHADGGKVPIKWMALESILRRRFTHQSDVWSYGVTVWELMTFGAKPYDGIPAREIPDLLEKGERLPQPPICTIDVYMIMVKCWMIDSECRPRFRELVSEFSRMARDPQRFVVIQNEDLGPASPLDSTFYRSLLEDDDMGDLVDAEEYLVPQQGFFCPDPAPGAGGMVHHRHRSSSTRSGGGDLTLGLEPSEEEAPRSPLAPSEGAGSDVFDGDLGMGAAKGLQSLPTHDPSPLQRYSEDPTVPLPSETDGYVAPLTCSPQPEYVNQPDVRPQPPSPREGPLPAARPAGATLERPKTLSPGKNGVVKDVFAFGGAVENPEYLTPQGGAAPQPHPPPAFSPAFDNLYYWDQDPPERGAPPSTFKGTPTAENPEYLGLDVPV

Structure (SMILES) | IC50 (wtERBB2 (Her2 WT)) [nM] | IC50 [1] [nM] | IC50 (wtEGFR) [nM] | GI50 (BaF3_HER2WT cells) [nM] | GI50 (BaF3_HER2YVMA cells) [nM] | GI50 (BaF3_EGFRWT cells) [nM]
C=CC(=O)NC1CCN(C(=O)c2ccn3ncnc(Nc4ccc(Oc5ccn6ncnc6c5)c(C)c4)c23)C1 (centres unmarked) [Example 4, N-(1-(4-((4-([1,2,4]triazolo[1,5-a]pyridin-7-yloxy)-3-methylphenyl)amino)pyrrolo[2,1-f][1,2,4]triazine-5-carbonyl)pyrrolidin-3-yl)acrylamide] | < 200 | < 200 | 1500 to 5000 | < 200 | < 200 | 1500 to 5000
Cc1cc(Nc2c(C#N)cnn3ccc(C4CN(C(=O)/C=C/CN(C)C)C4)c23)ccc1Oc1ccn2ncnc2c1 [Example 86, (E)-4-((4-([1,2,4]triazolo[1,5-a]pyridin-7-yloxy)-3-methylphenyl)amino)-5-(1-(4-(dimethylamino)-but-2-enoyl)azetidin-3-yl)pyrrolo[1,2-b]pyridazine-3-carbonitrile] | 1500 to 5000 | 1500 to 5000 | 1500 to 5000 | 1500 to 5000 | > 5000 | 1500 to 5000
Cc1cc(Nc2ncnn3ccc(C4CN(C(=O)/C=C/CN)C4)c23)ccc1Oc1ccn2ncnc2c1 [Example 87, (E)-1-(3-(4-((4-([1,2,4]triazolo[1,5-a]pyridin-7-yloxy)-3-methylphenyl)amino)pyrrolo[2,1-f][1,2,4]triazin-5-yl)azetidin-1-yl)-4-aminobut-2-en-1-one] | – | < 200 | 200 to 500 | 1500 to 5000 | 1500 to 5000 | 1500 to 5000
Cc1cc(Nc2ncnn3cnc(C4CCN(C(=O)/C=C/CN(C)C)CC4)c23)ccc1Oc1ccn2ncnc2c1 [Example 88, (E)-1-(4-(4-((4-([1,2,4]triazolo[1,5-a]pyridin-7-yloxy)-3-methylphenyl)amino)imidazo[5,1-f][1,2,4]triazin-5-yl)piperidin-1-yl)-4-(dimethylamino)but-2-en-1-one] | 200 to 500 | 500 to 1500 | 1500 to 5000 | 500 to 1500 | 1500 to 5000 | 1500 to 5000
CN(C)C/C=C/C(=O)N1CC(c2ccn3ncnc(Nc4cnc(Oc5cccc(C(F)(F)F)c5)c(Cl)c4)c23)C1 [Example 90, (E)-1-(3-(4-((5-chloro-6-(3-(trifluoromethyl)phenoxy)pyridin-3-yl)amino)pyrrolo[2,1-f][1,2,4]triazin-5-yl)azetidin-1-yl)-4-(dimethylamino)but-2-en-1-one] | 1500 to 5000 | 1500 to 5000 | 1500 to 5000 | 1500 to 5000 | 1500 to 5000 | 1500 to 5000
Cc1cc(Nc2ncnn3ccc(C4CN(C(=O)/C=C/CN5CC(F)(F)C5)C4)c23)ccc1Oc1ccn2ncnc2c1 [Example 91, (E)-1-(3-(4-((4-([1,2,4]triazolo[1,5-a]pyridin-7-yloxy)-3-methylphenyl)amino)pyrrolo[2,1-f][1,2,4]-triazin-5-yl)azetidin-1-yl)-4-(3,3-difluoroazetidin-1-yl)but-2-en-1-one] | – | < 200 | 500 to 1500 | < 200 | 500 to 1500 | 1500 to 5000
Cc1cc(Nc2ncnn3ccc(C4CCCN(C(=O)/C=C/CN(C)C)CC4)c23)ccc1Oc1ccn2ncnc2c1 (centres unmarked) [Example 93, (E)-1-(4-(4-((4-([1,2,4]triazolo[1,5-a]pyridin-7-yloxy)-3-methylphenyl)amino)pyrrolo[2,1-f][1,2,4]triazin-5-yl)azepan-1-yl)-4-(dimethylamino)but-2-en-1-one] | – | < 200 | 200 to 500 | < 200 | < 200 | 1500 to 5000
Cc1cc(Nc2ncnn3ccc(C4CC5(C4)CN(C(=O)/C=C/CN(C)C)C5)c23)ccc1Oc1ccn2ncnc2c1 [Example 95, (E)-1-(6-(4-((4-([1,2,4]triazolo[1,5-a]pyridin-7-yloxy)-3-methylphenyl)amino)pyrrolo[2,1-f][1,2,4]triazin-5-yl)-2-azaspiro[3.3]heptan-2-yl)-4-(dimethylamino)but-2-en-1-one] | – | < 200 | 200 to 500 | 200 to 500 | 500 to 1500 | 1500 to 5000
Cc1cc(Nc2ncnn3ccc(C4CCCN(C(=O)/C=C/CN(C)C)C4)c23)ccc1Oc1ccn2ncnc2c1 (centres unmarked) [Example 96, (E)-1-(3-(4-((4-([1,2,4]triazolo[1,5-a]pyridin-7-yloxy)-3-methylphenyl)amino)-pyrrolo-[2,1-f][1,2,4]-triazin-5-yl)piperidin-1-yl)-4-(dimethylamino)but-2-en-1-one] | – | < 200 | 500 to 1500 | < 200 | 500 to 1500 | 1500 to 5000
Cc1cc(Nc2ncnn3ccc(C4CN(C(=O)/C=C/CN5CCC5)C4)c23)ccc1Oc1ccn2ncnc2c1 [Example 102, (E)-1-(3-(4-((4-([1,2,4]triazolo[1,5-a]pyridin-7-yloxy)-3-methylphenyl)amino)pyrrolo[2,1-f][1,2,4]triazin-5-yl)azetidin-1-yl)-4-(azetidin-1-yl)but-2-en-1-one] | – | < 200 | 1500 to 5000 | 500 to 1500 | 1500 to 5000 | 1500 to 5000
Cc1cc(Nc2ncnn3ccc(-c4cnn(CCNC(=O)/C=C/CN(C)C)c4)c23)ccc1Oc1ccn2ncnc2c1 [Example 103, (E)-N-(2-(4-(4-((4-([1,2,4]triazolo[1,5-a]pyridin-7-yloxy)-3-methylphenyl)amino)pyrrolo[2,1-f][1,2,4]triazin-5-yl)-1H-pyrazol-1-yl)ethyl)-4-(dimethylamino)but-2-enamide] | – | 200 to 500 | 1500 to 5000 | 1500 to 5000 | 1500 to 5000 | 1500 to 5000
C=CC(=O)N1CCC2(C1)CN(c1ccn3ncnc(Nc4ccc(Oc5ccn6ncnc6c5)c(C)c4)c13)C2 [Example 155, 1-(2-{4-[(3-methyl-4-{[1,2,4]triazolo[1,5-a]pyridin-7-yloxy}phenyl)amino]pyrrolo[2,1-f][1,2,4]triazin-5-yl}-2,6-diazaspiro[3.4]octan-6-yl)prop-2-en-1-one] | – | < 200 | 1500 to 5000 | < 200 | 200 to 500 | 1500 to 5000
Cc1cc(Nc2ncnn3ccc(N4CC5(CCN(C(=O)/C=C/CN(C)C)C5)C4)c23)ccc1Oc1ccn2ncnc2c1 [Example 156, (2E)-4-(dimethylamino)-1-(2-{4-[(3-methyl-4-{[1,2,4]triazolo[1,5-a]pyridin-7-yloxy}phenyl)amino]pyrrolo[2,1-f][1,2,4]triazin-5-yl}-2,6-diazaspiro[3.4]octan-6-yl)but-2-en-1-one] | – | < 200 | 500 to 1500 | 200 to 500 | 1500 to 5000 | 1500 to 5000
Cc1cc(Nc2ncnn3ccc(C(=O)NCCCN(C)C)c23)ccc1Oc1ccn2ncnc2c1 [Example 178, 4-((4-([1,2,4]triazolo[1,5-a]pyridin-7-yloxy)-3-methylphenyl)amino)-N-(3-(dimethylamino)-propyl)pyrrolo[2,1-f][1,2,4]triazine-5-carboxamide] | – | < 200 | 500 to 1500 | 200 to 500 | 1500 to 5000 | > 5000
